Results: the CombiSolv-Exp solvation set (Vermeire and Green 2021)
One block for each compound: values may come before it.

Test: solvent given as SMILES

SMILES: c1ccccc1
- solvation free energy, 298 K (in BrC(Br)C(Br)Br): -4.27 kcal/mol
- solvation free energy, 298 K (in Brc1cccc2ccccc12): -4.1 kcal/mol
- solvation free energy, 298 K (in C1=CCCCC1): -4.37 kcal/mol
- solvation free energy, 298 K (in C1=Cc2ccccc2C1): -4.39 kcal/mol
- solvation free energy, 298 K (in C1CCC(C2CCCCC2)CC1): -3.96 kcal/mol
- solvation free energy, 298 K (in C1CCCCC1): -4.21 kcal/mol
- solvation free energy, 298 K (in C1CCOC1): -4.75 kcal/mol
- solvation free energy, 298 K (in C1COCCO1): -4.53 kcal/mol
- solvation free energy, 298 K (in C=CCCCCCCCCCCCCCC): -3.83 kcal/mol
- solvation free energy, 298 K (in CC1CCCC1): -4.19 kcal/mol
- solvation free energy, 298 K (in CC1CCS(=O)(=O)C1): -4.11 kcal/mol
- solvation free energy, 298 K (in CC1COC(=O)O1): -3.88 kcal/mol
- solvation free energy, 298 K (in CC#N): -4.25 kcal/mol
- solvation free energy, 298 K (in CC(=O)CC(C)C): -4.44 kcal/mol
- solvation free energy, 298 K (in CC(=O)N(C)C): -4.29 kcal/mol
- solvation free energy, 298 K (in CC(=O)O): -3.94 kcal/mol
- solvation free energy, 298 K (in CC(=O)OCc1ccccc1): -4.26 kcal/mol
- solvation free energy, 298 K (in CC(=O)c1ccccc1): -4.28 kcal/mol
- solvation free energy, 298 K (in CC(C)(C)O): -3.71 kcal/mol
- solvation free energy, 298 K (in CC(C)=O): -4.42 kcal/mol
- solvation free energy, 298 K (in CC(C)CC(C)(C)C): -3.95 kcal/mol
- solvation free energy, 298 K (in CC(C)CCCC(C)CCCC(C)CCCCC(C)CCCC(C)CCCC(C)C): -3.69 kcal/mol
- solvation free energy, 298 K (in CC(C)CO): -3.71 kcal/mol
- solvation free energy, 298 K (in CC(C)O): -3.71 kcal/mol
- solvation free energy, 298 K (in CC(O)CO): -3.21 kcal/mol
- solvation free energy, 298 K (in CCC#N): -4.47 kcal/mol
- solvation free energy, 298 K (in CCC(C)=O): -4.49 kcal/mol
- solvation free energy, 298 K (in CCC(C)O): -3.78 kcal/mol
- solvation free energy, 298 K (in CCCC#N): -4.29 kcal/mol
- solvation free energy, 298 K (in CCCCC#N): -4.42 kcal/mol
- solvation free energy, 298 K (in CCCCC(CC)COC(=O)CCCCC(=O)OCC(CC)CCCC): -4.09 kcal/mol
- solvation free energy, 298 K (in CCCCC(CC)COC(=O)c1ccccc1C(=O)OCC(CC)CCCC): -3.9 kcal/mol
- solvation free energy, 298 K (in CCCCCC): -4.03 kcal/mol
- solvation free energy, 298 K (in CCCCCC#N): -4.36 kcal/mol
- solvation free energy, 298 K (in CCCCCCC): -4 kcal/mol
- solvation free energy, 298 K (in CCCCCCCC): -3.96 kcal/mol
- solvation free energy, 298 K (in CCCCCCCCCC): -3.98 kcal/mol
- solvation free energy, 298 K (in CCCCCCCCCCCC): -3.85 kcal/mol
- solvation free energy, 298 K (in CCCCCCCCCCCCCCCC): -3.82 kcal/mol
- solvation free energy, 298 K (in CCCCCCCCCCCCO): -3.74 kcal/mol
- solvation free energy, 298 K (in CCCCCCCCCCO): -3.59 kcal/mol
- solvation free energy, 298 K (in CCCCCCCCCOC(=O)c1ccccc1C(=O)OCCCCCCCCC): -3.98 kcal/mol
- solvation free energy, 298 K (in CCCCCCCCO): -3.81 kcal/mol
- solvation free energy, 298 K (in CCCCCCCO): -3.83 kcal/mol
- solvation free energy, 298 K (in CCCCCO): -3.86 kcal/mol
- solvation free energy, 298 K (in CCCCCl): -4.46 kcal/mol
- solvation free energy, 298 K (in CCCCN(C=O)CCCC): -4.26 kcal/mol
- solvation free energy, 298 K (in CCCCOC(=O)c1ccccc1C(=O)OCCCC): -4.23 kcal/mol
- solvation free energy, 298 K (in CCCCOC(C)=O): -3.87 kcal/mol
- solvation free energy, 298 K (in CCCCOCCCC): -4.11 kcal/mol
- solvation free energy, 298 K (in CCCO): -3.84 kcal/mol
- solvation free energy, 298 K (in CCN1CCCC1=O): -4.5 kcal/mol
- solvation free energy, 298 K (in CCN(CC)C(C)=O): -4.39 kcal/mol
- solvation free energy, 298 K (in CCNC(C)=O): -4 kcal/mol
- solvation free energy, 298 K (in CCNC=O): -3.94 kcal/mol
- solvation free energy, 298 K (in CCO): -3.88 kcal/mol
- solvation free energy, 298 K (in CCOC(=O)c1ccccc1C(=O)OCC): -4.06 kcal/mol
- solvation free energy, 298 K (in CCOC(C)=O): -4.42 kcal/mol
- solvation free energy, 298 K (in CN1CCCC1=O): -4.43 kcal/mol
- solvation free energy, 298 K (in CN1CCCCC1=O): -4.47 kcal/mol
- solvation free energy, 298 K (in CN(C)P(=O)(N(C)C)N(C)C): -4.31 kcal/mol
- solvation free energy, 298 K (in CNC(C)=O): -3.87 kcal/mol
- solvation free energy, 298 K (in CNC=O): -3.83 kcal/mol
- solvation free energy, 298 K (in CO): -3.85 kcal/mol
- solvation free energy, 298 K (in COC(=O)OC): -4.41 kcal/mol
- solvation free energy, 298 K (in COC(C)(C)C): -4.31 kcal/mol
- solvation free energy, 298 K (in COC(C)=O): -4.38 kcal/mol
- solvation free energy, 298 K (in COCCO): -4.02 kcal/mol
- solvation free energy, 298 K (in CS(C)=O): -3.96 kcal/mol
- solvation free energy, 298 K (in Cc1ccc(C)cc1): -4.37 kcal/mol
- solvation free energy, 298 K (in Cc1cccc2ccccc12): -4.17 kcal/mol
- solvation free energy, 298 K (in Cc1cccc(C)c1): -4.36 kcal/mol
- solvation free energy, 298 K (in Cc1cccc(O)c1): -4 kcal/mol
- solvation free energy, 298 K (in Cc1ccccc1): -4.47 kcal/mol
- solvation free energy, 298 K (in ClC(Cl)(Cl)Cl): -4.42 kcal/mol
- solvation free energy, 298 K (in ClC(Cl)C(Cl)Cl): -4.59 kcal/mol
- solvation free energy, 298 K (in ClC(Cl)Cl): -4.79 kcal/mol
- solvation free energy, 298 K (in ClCBr): -4.74 kcal/mol
- solvation free energy, 298 K (in ClCCCl): -4.59 kcal/mol
- solvation free energy, 298 K (in ClCCl): -4.8 kcal/mol
- solvation free energy, 298 K (in Clc1cccc2ccccc12): -4.07 kcal/mol
- solvation free energy, 298 K (in Clc1ccccc1): -4.44 kcal/mol
- solvation free energy, 298 K (in N#CCCCC#N): -3.59 kcal/mol
- solvation free energy, 298 K (in N#CCCCCC#N): -3.92 kcal/mol
- solvation free energy, 298 K (in N#CCCO): -3.5 kcal/mol
- solvation free energy, 298 K (in N#CCc1ccccc1): -4.13 kcal/mol
- solvation free energy, 298 K (in N#Cc1ccccc1): -4.35 kcal/mol
- solvation free energy, 298 K (in NC=O): -2.69 kcal/mol
- solvation free energy, 298 K (in NCCN): -3.63 kcal/mol
- solvation free energy, 298 K (in NCCO): -3.09 kcal/mol
- solvation free energy, 298 K (in NCc1ccccc1): -4.23 kcal/mol
- solvation free energy, 298 K (in Nc1ccccc1): -4.07 kcal/mol
- solvation free energy, 298 K (in O): -0.87 kcal/mol
- solvation free energy, 298 K (in O=C1CCCCC1): -4.55 kcal/mol
- solvation free energy, 298 K (in O=C1CCCO1): -4.16 kcal/mol
- solvation free energy, 298 K (in O=C(O)C(Cl)Cl): -4.09 kcal/mol
- solvation free energy, 298 K (in O=CN1CCOCC1): -4.02 kcal/mol
- solvation free energy, 298 K (in O=Cc1ccco1): -4.04 kcal/mol
- solvation free energy, 298 K (in OC1CCCCC1): -3.85 kcal/mol
- solvation free energy, 298 K (in OCC1CCCO1): -4.04 kcal/mol
- solvation free energy, 298 K (in OCCCCCO): -3.33 kcal/mol
- solvation free energy, 298 K (in OCCCCO): -3.36 kcal/mol
- solvation free energy, 298 K (in OCCCO): -3.12 kcal/mol
- solvation free energy, 298 K (in OCCCl): -3.65 kcal/mol
- solvation free energy, 298 K (in OCCO): -2.76 kcal/mol
- solvation free energy, 298 K (in OCCOCCO): -3.38 kcal/mol
- solvation free energy, 298 K (in OCCOCCOCCO): -3.43 kcal/mol
- solvation free energy, 298 K (in OCCOCCOCCOCCO): -3.56 kcal/mol
- solvation free energy, 298 K (in OCCS): -3.62 kcal/mol
- solvation free energy, 298 K (in OCCc1ccccc1): -3.96 kcal/mol
- solvation free energy, 298 K (in OCc1ccccc1): -3.94 kcal/mol
- solvation free energy, 298 K (in OCc1ccco1): -3.89 kcal/mol
- solvation free energy, 298 K (in S=C=S): -4.51 kcal/mol
- solvation free energy, 298 K (in [2H]O[2H]): -1.01 kcal/mol
- solvation free energy, 298 K (in c1ccc2c(c1)CCCC2): -4.33 kcal/mol
- solvation free energy, 298 K (in c1ccc2ncccc2c1): -4.31 kcal/mol
- solvation free energy, 298 K (in c1ccc(C2CCCCC2)cc1): -4.19 kcal/mol
- solvation free energy, 298 K (in c1ccncc1): -4.51 kcal/mol
- solvation free energy, 298 K (in c1ccsc1): -4.61 kcal/mol

SMILES: ClCc1ccccc1
- solvation free energy, 298 K (in C1COCCO1): -7.23 kcal/mol
- solvation free energy, 298 K (in CC(C)(C)O): -6.07 kcal/mol
- solvation free energy, 298 K (in CC(C)O): -5.99 kcal/mol
- solvation free energy, 298 K (in CCCCO): -6.08 kcal/mol
- solvation free energy, 298 K (in CCCO): -6.06 kcal/mol
- solvation free energy, 298 K (in CCO): -6.22 kcal/mol
- solvation free energy, 298 K (in CO): -6.37 kcal/mol
- solvation free energy, 298 K (in O): -1.88 kcal/mol

SMILES: O=C1CCCCC1
- solvation free energy, 298 K (in CCCCCC): -4.98 kcal/mol
- solvation free energy, 298 K (in CCCCCCC): -5.18 kcal/mol
- solvation free energy, 298 K (in CCCCCCCCCCCCCCCC): -4.97 kcal/mol
- solvation free energy, 298 K (in ClC(Cl)(Cl)Cl): -6.23 kcal/mol
- solvation free energy, 298 K (in ClCCCl): -6.78 kcal/mol
- solvation free energy, 298 K (in O): -4.91 kcal/mol

SMILES: C1=CCCCC1
- solvation free energy, 298 K (in C1CCC2CCCCC2C1): -4.21 kcal/mol
- solvation free energy, 298 K (in C1CCC(C2CCCCC2)CC1): -4.18 kcal/mol
- solvation free energy, 298 K (in CC#N): -3.43 kcal/mol
- solvation free energy, 298 K (in CC(=O)N(C)C): -3.48 kcal/mol
- solvation free energy, 298 K (in CCC(C)=O): -4 kcal/mol
- solvation free energy, 298 K (in CCCCCCCCO): -3.86 kcal/mol
- solvation free energy, 298 K (in CCCCCl): -4.37 kcal/mol
- solvation free energy, 298 K (in CCCCN(C=O)CCCC): -3.89 kcal/mol
- solvation free energy, 298 K (in CCN1CCCC1=O): -3.79 kcal/mol
- solvation free energy, 298 K (in CCN(CC)C(C)=O): -3.85 kcal/mol
- solvation free energy, 298 K (in CCNC(C)=O): -3.67 kcal/mol
- solvation free energy, 298 K (in CCNC=O): -3.52 kcal/mol
- solvation free energy, 298 K (in CN1CCCC1=O): -3.7 kcal/mol
- solvation free energy, 298 K (in CN1CCCCC1=O): -3.75 kcal/mol
- solvation free energy, 298 K (in CN(C)C=O): -3.66 kcal/mol
- solvation free energy, 298 K (in CNC(C)=O): -3.52 kcal/mol
- solvation free energy, 298 K (in CNC=O): -3.26 kcal/mol
- solvation free energy, 298 K (in COCCO): -3.48 kcal/mol
- solvation free energy, 298 K (in CS(C)=O): -3.13 kcal/mol
- solvation free energy, 298 K (in N#Cc1ccccc1): -3.95 kcal/mol
- solvation free energy, 298 K (in NC=O): -1.87 kcal/mol
- solvation free energy, 298 K (in O): 0.36 kcal/mol
- solvation free energy, 298 K (in O=CN1CCOCC1): -3.21 kcal/mol
- solvation free energy, 298 K (in OCCO): -2 kcal/mol
- solvation free energy, 298 K (in OCCOCCO): -2.63 kcal/mol
- solvation free energy, 298 K (in OCCOCCOCCO): -2.73 kcal/mol
- solvation free energy, 298 K (in c1ccc2c(c1)CCCC2): -4.28 kcal/mol
- solvation free energy, 298 K (in c1ccc(C2CCCCC2)cc1): -4.19 kcal/mol
- solvation free energy, 298 K (in c1ccccc1): -4.47 kcal/mol

Next, values leading:

- solvation free energy, 298 K (in O): -4.71 kcal/mol
SMILES: O=Cc1ccccc1O

- solvation free energy, 298 K (in O): 0.78 kcal/mol
SMILES: CC1=CCC2CC3C(C)CCC13C2(C)C (stereo unspecified)

- solvation free energy, 298 K (in O): -4.76 kcal/mol
SMILES: CCNc1ccccc1

- solvation free energy, 298 K (in O): 0.63 kcal/mol
SMILES: C=C1CCC23C(C)CCC(C(C)C)C2C13 (stereo unspecified)
